Values of other authors as cited in patent publication US6699676B1, “Uses of ouabain and ouabain-like molecules in apoptosis related pathologies” (Corporation du Centre de Recherche du Centre, Hospitalier …, priority 1999, dated 2004).

System: VSMC
Details: moderate elevation of [Ca2+]i, reference (37); cited from earlier work

## C[C@H](CCC(=O)O)C[C@H](C)C[C@H](C)C(=O)/C=C(\O)[C@H](C)C[C@H](C)C/C=C/[C@@H](C)[C@@H](O)[C@@H](C)[C@@H](O)C[C@@H]1CC[C@@](C)([C@H]2CC[C@@](C)([C@@H](C)O)O2)O1 [ionomycin]
  effect on VSMC apoptosis: did not observe any effect

## C/C=C(/C)C(=O)O[C@H]1C(C)=C2[C@H]([C@@H]1OC(=O)CCCCCCC)[C@@](C)(OC(C)=O)C[C@H](OC(=O)CCC)[C@@]1(O)[C@H]2OC(=O)[C@@]1(C)O [thapsigargin]
  effect on VSMC apoptosis: did not observe any effect
